One compound from patent US20050197274A1, “Solid laundry detergent granules with polyanionic ammonium surfactant and non-aqueous binder” (Unilever Home & Personal Care USA, Division of Conopco, Inc., priority 2004, published 2005) can be followed below.

This series is described as follows: Water solubility: appearance and pH of the aqueous mix while acid and polyamine are combined. It counts as physicochemical. The following applies: TEPA 2.0 g in water 94.0 g, before LAS acid. An excerpt:
As PAAS began forming, the solution became hazy. Upon further addition of the LAS acid, the hazy solution became a dispersion. Upon standing for hours, the dispersion formed a layer of sediment at the bottom of the beaker. Even a very diluted formulation (such as below 0.1%) was hazy. […] The solution was clear at the all time over the entire pH range, leading to the conclusion that Na-LAS was fully ionized or disassociated. […] Example 1 was repeated, except that fatty acid was used in place of LAS acid.

As to `NCCNCCNCCNCCN` [TEPA, Tetraethylenepentamine], the “Observations (appearance)” value is “Clear”.
